In one assay the target is T1, GLUT1 (Homo sapiens, UniProt P11166).
T1 sequence (P11166 1-492): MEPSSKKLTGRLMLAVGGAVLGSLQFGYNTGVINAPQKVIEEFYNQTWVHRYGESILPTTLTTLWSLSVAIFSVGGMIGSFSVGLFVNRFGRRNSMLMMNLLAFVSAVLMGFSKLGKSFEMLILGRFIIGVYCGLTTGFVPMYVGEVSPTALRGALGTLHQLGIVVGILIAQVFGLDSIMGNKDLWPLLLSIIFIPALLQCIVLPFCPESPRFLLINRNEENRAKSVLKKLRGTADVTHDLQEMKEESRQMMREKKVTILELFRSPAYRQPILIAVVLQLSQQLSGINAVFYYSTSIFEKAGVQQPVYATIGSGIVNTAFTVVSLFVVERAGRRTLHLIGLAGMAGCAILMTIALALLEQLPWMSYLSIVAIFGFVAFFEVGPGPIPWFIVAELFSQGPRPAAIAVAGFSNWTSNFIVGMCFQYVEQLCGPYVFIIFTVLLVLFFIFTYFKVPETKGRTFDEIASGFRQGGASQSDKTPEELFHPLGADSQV
The assay can be described thus: Indirect measurement of GLUT1 activity by quantification of intracellular ATP levels (glucose induced ATP increase). It counts as cell-based. Also on record: endogenous in cells; host or cells: DLD1 or CHO-K1. The conditions noted are these: DLD1 cells; 0.1 mM glucose, 1 μM Rotenone, 15 min; CellTiter-Glo ATP readout; IC50 values standardized to cytochalasin B IC50 values; read-out: IC50 regarding glucose induced ATP increase (GLUT1 inhibition). The essentials:
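Intracellular ATP was measured by CellTiter-Glo luminescence as an indirect readout of transport: glucose-driven for GLUT1, fructose-driven for GLUT2. DLD1 or CHO-K1 cells were used alongside an oxidative phosphorylation inhibitor. Beforehand, cells were held overnight in glucose-free 1% FCS medium to deplete ATP.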
In general terms: Cellular ATP, detected with luciferase, serves as a proxy for viable cell number.
Regarding `Cc1c(NC(=O)c2cc(C(N)=O)nc3cc(F)ccc23)c(C(F)(F)F)nn1Cc1ccc(C#N)nc1` [Example 290, N^4-{1-[(6-cyanopyridin-3-yl)methyl]-5-methyl-3-(trifluoromethyl)-1H-pyrazol-4-yl}-7-fluoroquinoline-2,4-dicarboxamide], the IC50 (usually the concentration that gives 50% inhibition) turned out to be 31.7 nM.

Staying with this assay, now noted: read-out: IC50 regarding glucose induced ATP increase (GLUT1 inhibition).
`COc1ccc(Cn2nc(C)c(NC(=O)c3cc(C(N)=O)nc4cc(F)ccc34)c2C)cc1` [Example 275, 7-fluoro-N^4-[1-(4-methoxybenzyl)-3,5-dimethyl-1H-pyrazol-4-yl]quinoline-2,4-dicarboxamide]: the IC50 was determined as 1.1 nM.
The same measure, in the same setting: to `COc1ccc(Cn2nc(C)c(NC(=O)c3cc(C(N)=O)nc4c(F)cc(Cl)cc34)c2C)cc1` [Example 276, 6-chloro-8-fluoro-N^4-[1-(4-methoxybenzyl)-3,5-dimethyl-1H-pyrazol-4-yl]quinoline-2,4-dicarboxamide] belongs 1.3 nM; to `COc1ccc(Cn2nc(C(F)(F)F)c(NC(=O)c3cc(C(N)=O)nc4ccccc34)c2C)cc1` [Example 277, N^4-[1-(4-methoxybenzyl)-5-methyl-3-(trifluoromethyl)-1H-pyrazol-4-yl]quinoline-2,4-dicarboxamide], 1.8 nM; to `COc1ccc(Cn2nc(C(F)(F)F)c(NC(=O)c3cc(C(N)=O)nc4cc(F)c(Cl)cc34)c2C)cc1` [Example 278, 6-chloro-7-fluoro-N^4-[1-(4-methoxybenzyl)-5-methyl-3-(trifluoromethyl)-1H-pyrazol-4-yl]quinoline-2,4-dicarboxamide], 1.4 nM.
On the same count and under the same terms, to `COc1ccc(Cn2nc(C(F)(F)F)c(NC(=O)c3cc(C(N)=O)nc4cc(F)c(F)cc34)c2C)cc1` [Example 279, 6,7-difluoro-N^4-[1-(4-methoxybenzyl)-5-methyl-3-(trifluoromethyl)-1H-pyrazol-4-yl]quinoline-2,4-dicarboxamide] belongs 1.4 nM; to `COc1ccc(Cn2nc(C(F)(F)F)c(NC(=O)c3cc(C(N)=O)nc4ccccc34)c2C)cn1` [Example 280, N^4-{1-[(6-methoxypyridin-3-yl)methyl]-5-methyl-3-(trifluoromethyl)-1H-pyrazol-4-yl}quinoline-2,4-dicarboxamide], 1.1 nM.
Same read-out and setting: under `COc1ccc(Cn2nc(C(F)(F)F)c(NC(=O)c3cc(C(N)=O)nc4cc(F)c(Cl)cc34)c2C)cn1` [Example 281, 6-chloro-7-fluoro-N^4-{1-[(6-methoxypyridin-3-yl)methyl]-5-methyl-3-(trifluoromethyl)-1H-pyrazol-4-yl}quinoline-2,4-dicarboxamide] stands 1.3 nM; under `COc1ccc(Cn2nc(C)c(NC(=O)c3cc(C(N)=O)nc4ccccc34)c2C)cn1` [Example 282, N^4-{1-[(6-methoxypyridin-3-yl)methyl]-3,5-dimethyl-1H-pyrazol-4-yl}quinoline-2,4-dicarboxamide], 3.2 nM.
On to `COc1ccc(Cn2nc(C)c(NC(=O)c3cc(C(N)=O)nc4cc(F)c(Cl)cc34)c2C)cn1` [Example 283, 6-chloro-7-fluoro-N^4-{1-[(6-methoxypyridin-3-yl)methyl]-3,5-dimethyl-1H-pyrazol-4-yl}quinoline-2,4-dicarboxamide], for which the concentration for half-maximal inhibition (IC50) turned out to be 1.2 nM.
Consider `COc1ccc(CCCn2nc(C)c(NC(=O)c3cc(C(N)=O)nc4ccccc34)c2C)cc1` [Example 284, N^4-{1-[3-(4-methoxyphenyl)propyl]-3,5-dimethyl-1H-pyrazol-4-yl}quinoline-2,4-dicarboxamide], for which the IC50 is 9 nM.
Regarding `Cc1nn(Cc2ccncc2C#N)c(C)c1NC(=O)c1cc(C(N)=O)nc2cc(F)c(Cl)cc12` [Example 285, 6-chloro-N^4-{1-[(3-cyanopyridin-4-yl)methyl]-3,5-dimethyl-1H-pyrazol-4-yl}-7-fluoroquinoline-2,4-dicarboxamide], the IC50 turned out to be 3.4 nM.
Same read-out and setting: to `Cc1nn(Cc2ccncc2C#N)c(C)c1NC(=O)c1cc(C(N)=O)nc2ccccc12` [Example 286, N^4-{1-[(3-cyanopyridin-4-yl)methyl]-3,5-dimethyl-1H-pyrazol-4-yl}quinoline-2,4-dicarboxamide] belongs 35.6 nM; to `Cc1c(NC(=O)c2cc(C(N)=O)nc3cc(F)c(Cl)cc23)c(C(F)(F)F)nn1Cc1ccncc1C#N` [Example 287, 6-chloro-N^4-{1-[(3-cyanopyridin-4-yl)methyl]-5-methyl-3-(trifluoromethyl)-1H-pyrazol-4-yl}-7-fluoroquinoline-2,4-dicarboxamide], 4.8 nM.
On the same count and under the same terms, to `Cc1c(NC(=O)c2cc(C(N)=O)nc3ccccc23)c(C(F)(F)F)nn1Cc1ccncc1C#N` [Example 288, N^4-{1-[(3-cyanopyridin-4-yl)methyl]-5-methyl-3-(trifluoromethyl)-1H-pyrazol-4-yl}quinoline-2,4-dicarboxamide] belongs 40.1 nM; to `Cc1c(NC(=O)c2cc(C(N)=O)nc3ccccc23)c(C(F)(F)F)nn1Cc1ccc(C#N)nc1` [Example 289, N^4-{1-[(6-cyanopyridin-3-yl)methyl]-5-methyl-3-(trifluoromethyl)-1H-pyrazol-4-yl}quinoline-2,4-dicarboxamide], 21.5 nM.
`Cc1c(NC(=O)c2cc(C(N)=O)nc3cccc(F)c23)c(C(F)(F)F)nn1Cc1ccc(C#N)nc1` [Example 291, N^4-{1-[(6-cyanopyridin-3-yl)methyl]-5-methyl-3-(trifluoromethyl)-1H-pyrazol-4-yl}-5-fluoroquinoline-2,4-dicarboxamide]: the IC50 worked out at 6.9 nM.
The same measure, in the same setting: under `Cc1nn(Cc2ccc(C#N)nc2)c(C)c1NC(=O)c1cc(C(N)=O)nc2cc(F)ccc12` [Example 292, N^4-{1-[(6-cyanopyridin-3-yl)methyl]-3,5-dimethyl-1H-pyrazol-4-yl}-7-fluoroquinoline-2,4-dicarboxamide] stands 17 nM; under `Cc1nn(Cc2ccc(C#N)nc2)c(C)c1NC(=O)c1cc(C(N)=O)nc2ccc(Br)cc12` [Example 293, 6-bromo-N^4-{1-[(6-cyanopyridin-3-yl)methyl]-3,5-dimethyl-1H-pyrazol-4-yl}quinoline-2,4-dicarboxamide], 1 nM; under `Cc1nn(CCOc2ccc(C#N)cc2)c(C)c1NC(=O)c1cc(C(N)=O)nc2cc(F)c(Cl)cc12` [Example 294, 6-chloro-N^4-{1-[2-(4-cyanophenoxy)ethyl]-3,5-dimethyl-1H-pyrazol-4-yl}-7-fluoroquinoline-2,4-dicarboxamide], 6.6 nM.
In the case of `Cc1nn(CCOc2ccc(C#N)cc2)c(C)c1NC(=O)c1cc(C(N)=O)nc2ccccc12` [Example 295, N^4-{1-[2-(4-cyanophenoxy)ethyl]-3,5-dimethyl-1H-pyrazol-4-yl}quinoline-2,4-dicarboxamide], the IC50 was determined as 1020 nM.
Same read-out and setting: under `Cc1nn(Cc2ccc(C#N)cc2F)c(C)c1NC(=O)c1cc(C(N)=O)nc2cc(F)c(Cl)cc12` [Example 296, 6-chloro-N^4-[1-(4-cyano-2-fluorobenzyl)-3,5-dimethyl-1H-pyrazol-4-yl]-7-fluoroquinoline-2,4-dicarboxamide] stands 0.6 nM; under `Cc1nn(Cc2ccc(C#N)cc2F)c(C)c1NC(=O)c1cc(C(N)=O)nc2ccccc12` [Example 297, N^4-[1-(4-cyano-2-fluorobenzyl)-3,5-dimethyl-1H-pyrazol-4-yl]quinoline-2,4-dicarboxamide], 0.8 nM.
